Marks after values point to notes of the source that are not given here.
Columns and labels:
human skin [1] = assay: Transepidermal water loss (TEWL) of human skin in vitro, reversibility; settings: for TEWL 1 h after the sample had been removed / TEWL 4 h after the sample had been removed / TEWL 8 h after the sample had been removed / TEWL 12 h after the sample had been removed / TEWL 24 h after the sample had been removed: 24-h application of 1% enhancer (1% Azone, 5% SDS) in 60% PG; for TEWL 1 h after the sample had been removed / TEWL 4 h after the sample had been removed / TEWL 8 h after the sample had been removed / TEWL 12 h after the sample had been removed / TEWL 24 h after the sample had been removed / TEWL before sample application (baseline): mean ± SEM; for reversibility of TEWL increase: after 24-h application, followed 24 h after removal
Source text: (§1) We further investigated the direct effects of the selected enhancers on the skin barrier assessed by TEWL and the electrical impedance of human skin in vitro. TEWL is a method commonly used in dermatology[38] to study, for example, the irritant potential of chemicals, skin barrier recovery, or effect of topical formulations, and permeation enhancers[17],[21],[41]–[44]. Electrical impedance measures the opposition of the skin to alternating electrical current and is inversely proportional to the flux of ions. Thus, increased TEWL or decreased impedance indicates a barrier impairment[45],[46]. Electrical impedance or conductance measurements have been used to screen new enhancers or assess the irritation potential of compounds[13],[15],[17],[21],[32],[44],[47]–[50]. Both TEWL and impedance can distinguish between reversible and irreversible effects of enhancers on skin permeability[17],[21],[40],[44],[51].
(§2) Human skin was mounted in Franz diffusion cells in the same way as for the permeation studies. After 1-h equilibration, basal TEWL and impedance values were recorded. Then, 1% enhancer in 60% PG, 60% PG as a negative control, 1% Azone in 60% PG, or 5% SDS in 60% PG as positive (irreversible) controls was applied on the skin (100 µl/cm^2) for 24 h. The residual sample was washed with PBS and gently blotted dry. At 1, 4, 8, 12, and 24 h after sample removal, TEWL, and impedance values were recorded. TEWL was measured using AquaFlux AF 200 (Biox Systems Ltd, London, UK), employing the condenser-chamber measurement method at 26 ± 1.0 °C and 43 ± 3% relative air humidity. Electrical impedance was measured by LCR meter 4080 (Conrad electronic, Hirschau, Germany, measuring range 20 Ω–10 MΩ, error at kΩ values < 0.5%) operated in parallel mode with an alternating frequency of 120 Hz, which was also used in our previous work[21],[44].
(§3) Samples were removed from the skin after 24 h, and TEWL and impedance values were recorded in predetermined time intervals (1, 4, 8, 12, and 24 h after sample removal). Data are presented as the means ± SEM; n ≥ 3. * statistically significant difference compared to the baseline value before the sample application at p < 0.05. ^+ statistically significant compared to the value 1 h after the sample removal at p < 0.05.^ ≠ statistically significant compared to the control (60% PG without enhancer) at the same time point, at p < 0.05.

human skin [2] = assay: Electrical impedance of human skin in vitro, reversibility; settings: for impedance 1 h after the sample had been removed / impedance 4 h after the sample had been removed / impedance 8 h after the sample had been removed / impedance 12 h after the sample had been removed / impedance 24 h after the sample had been removed: 24-h application of 1% enhancer (1% Azone, 5% SDS) in 60% PG; for impedance 1 h after the sample had been removed / impedance 4 h after the sample had been removed / impedance 8 h after the sample had been removed / impedance 12 h after the sample had been removed / impedance 24 h after the sample had been removed / impedance before sample application (baseline): mean ± SEM; for recovery of skin impedance after sample removal: after 24-h application, followed 24 h after removal
Source text: as §1, §2, §3

human skin [3] = assay: Diclofenac permeation through human skin in Franz diffusion cells with co-applied enhancer; assay type: in vitro ADME; settings: 1% enhancer co-applied with 3% DC in 60% PG; for CDERMIS, diclofenac concentration in dermis / CEPIDERMIS, diclofenac concentration in epidermis: after 48 h permeation, mean ± SEM; for ER, enhancement ratio of diclofenac flux: human skin in vitro
Method: (§4) Donor samples for reversibility and infrared studies contained 1% enhancer in 60% PG. All samples were thoroughly mixed, incubated at 32 °C for 24 h, and, if needed, carefully resuspended before applying on the skin. The effects of the studied enhancers on the solubility of model drugs were assessed as described previously.
(§5) The permeation-enhancing potencies of the prepared compounds were evaluated on human skin in Franz diffusion cells. Human skin was slowly thawed, cut into 2 × 2 cm pieces, fixed in Teflon holders with 1-cm^2 circular permeation areas, and mounted into Franz cells epidermal side up. The acceptor compartment (15.9 ± 0.1 ml) was filled with phosphate-buffered saline at pH 7.4 with 0.005% gentamicin (PBS) and stirred at 32 °C throughout the experiment. The skin integrity was checked by electrical impedance (any skin sample with the impedance < 10 kΩ was excluded). Then, 100 µl of a donor sample (infinite dose) was applied to the skin and covered with a glass slide. Acceptor phase samples (300 µl) were collected at predetermined time intervals for 48 h, to reach steady-state and were replaced by the same volume of fresh PBS. […] The drug concentrations were measured by HPLC (see supplementary data).
(§6) The flux of the model drug through the skin Jss (µg/cm^2/h) was calculated from the linear region of this plot. The enhancement ratio (ER) was calculated as the ratio of flux with and without an enhancer.
(§7) After the permeation experiment, the cells were dismounted, the skin was carefully washed with PBS, and the permeation area of the skin (1 cm^2) was punched off. After heating the skin fragments to 80 °C for 1 min, the epidermis (E) was peeled off the dermis (D), individually weighed and extracted by 1 and 2 ml, respectively, of an extraction solvent (identical to the mobile phase for the drug HPLC analysis, see supplementary data) for 24 h. The drug concentration was measured by HPLC (see supplementary data).

human skin [4] = assay: Theophylline permeation through human skin in Franz diffusion cells with co-applied enhancer; assay type: in vitro ADME; settings: for CDERMIS, theophylline concentration in dermis / CEPIDERMIS, theophylline concentration in epidermis / ER, enhancement ratio of theophylline flux (fold increase in flux over control): 1% enhancer co-applied with 5% TH in 60% PG; for CDERMIS, theophylline concentration in dermis / CEPIDERMIS, theophylline concentration in epidermis: after 48 h permeation, mean ± SEM; for ER, enhancement ratio of theophylline flux (fold increase in flux over control): human skin in vitro
Method: The prepared enhancers were applied at 1% in 60% aqueous propylene glycol (PG) to human skin in vitro; 60% PG was used as a negative control. PG was selected for its synergy with amphiphilic enhancers. Each model drug was co-applied with the enhancer at infinite dose.
as §4, §5, §6, §7

Row | SMILES | CDERMIS, diclofenac concentration in dermis (human skin [3]) [µg/mg] | CEPIDERMIS, diclofenac concentration in epidermis (human skin [3]) [µg/mg] | ER, enhancement ratio of diclofenac flux (human skin [3]) | CDERMIS, theophylline concentration in dermis (human skin [4]) [µg/mg] | CEPIDERMIS, theophylline concentration in epidermis (human skin [4]) [µg/mg] | ER, enhancement ratio of theophylline flux (fold increase in flux over control) (human skin [4]) | other results
1 | CCCCCCCCCCCCN1CCCCCC1=O [Azone, N-dodecylazepan-2-one, reference compound] | – | – | – | – | – | – | TEWL 1 h after the sample had been removed (human skin [1]): 67.7 ± 1.3*^≠ g/m^2/h; TEWL 4 h after the sample had been removed (human skin [1]): 60.7 ± 1.7*^≠ g/m^2/h; TEWL 8 h after the sample had been removed (human skin [1]): 51.9 ± 1.6*^≠+ g/m^2/h; TEWL 12 h after the sample had been removed (human skin [1]): 48.8 ± 2.3*^≠+ g/m^2/h; TEWL 24 h after the sample had been removed (human skin [1]): 48.3 ± 1.4*^≠+ g/m^2/h; reversibility of TEWL increase (human skin [1]): lack of TEWL and impedance reversibility; TEWL before sample application (baseline) (human skin [1]): 28.2 ± 3.6 g/m^2/h; impedance 1 h after the sample had been removed (human skin [2]): 2.6 ± 0.4* kΩ×cm^2; impedance 4 h after the sample had been removed (human skin [2]): 7.8 ± 0.4*^≠ kΩ×cm^2; impedance 8 h after the sample had been removed (human skin [2]): 11.2 ± 0.2*^≠+ kΩ×cm^2; impedance 12 h after the sample had been removed (human skin [2]): 12.2 ± 0.4*^≠+ kΩ×cm^2; impedance 24 h after the sample had been removed (human skin [2]): 12.4 ± 0.8*^≠+ kΩ×cm^2; recovery of skin impedance after sample removal (human skin [2]): lack of TEWL and impedance reversibility; impedance before sample application (baseline) (human skin [2]): 25.1 ± 2.0 kΩ×cm^2
2 | CCCCCCCCCCCCOC(=O)C1CC(O)CN1C(C)=O (centres unmarked) [Hyp2] | 0.90 ± 0.08 | 9.22 ± 0.32 | 3 | 0.20 ± 0.03 | 2.87 ± 0.45 | 10 | –
3 | CCCCCCCCCCCCOC(=O)C1CC(O)CN1C(=O)CC (centres unmarked) [Hyp3] | 0.97 ± 0.07 | 9.18 ± 0.62 | 4 | 0.25 ± 0.07 | 3.64 ± 0.85 | – | ER of epidermal TH concentration (human skin [4]; 1% enhancer with 5% TH in 60% PG, over control): 1.9
4 | CCCCCCCCCCCCOC(=O)C1CC(O)CN1C(=O)CCC (centres unmarked) [Hyp4] | 1.01 ± 0.05 | 8.99 ± 1.23 | 4 | 0.39 ± 0.07 | 1.96 ± 0.56 | 16 | –
5 | CCCCCCCCCCCCOC(=O)C1CC(O)CN1C(=O)CCCC (centres unmarked) [Hyp5] | 1.02 ± 0.11 | 9.84 ± 1.22 | 5 | 0.23 ± 0.03 | 1.45 ± 0.41 | ~19 | –
6 | CCCCCCCCCCCCOC(=O)C1CCC(=O)N1C(C)=O (centres unmarked) [PCA2] | – | – | – | 0.22 ± 0.03 | 2.33 ± 0.26 | 12 | –
7 | CCCCCCCCCCCCOC(=O)C1CCC(=O)N1C(=O)CC (centres unmarked) [PCA3] | – | – | – | 0.28 ± 0.04 | 2.99 ± 0.37 | 9 | –
8 | CCCCCCCCCCCCOC(=O)C1CCC(=O)N1C(=O)CCC (centres unmarked) [PCA4] | – | – | – | 0.30 ± 0.14 | 2.53 ± 0.23 | 5 | –
9 | CCCCCCCCCCCCOC(=O)C1CCC(=O)N1C(=O)CCCC (centres unmarked) [PCA5] | – | – | – | 0.23 ± 0.07 | 2.14 ± 0.44 | 5 | –
10 | CCCCCCCCCCCCOC(=O)C1CCCN1C(=O)CCCC (centres unmarked) [Pro5] | 1.30 ± 0.25 | 8.51 ± 1.39 | – | 0.26 ± 0.02 | 0.83 ± 0.12 | 24 | –
11 | CCCCCCCCCCCCOC(=O)C1CCCN1C(=O)CCCCC (centres unmarked) [Pro6] | 1.44 ± 0.31 | 10.26 ± 0.38 | – | 0.22 ± 0.03 | 1.14 ± 0.19 | 16 | –
12 | CCCCCCCCCCCCOC(=O)C1CCCN1C(=O)CCCCCC (centres unmarked) [Pro7] | 1.30 ± 0.75 | 8.63 ± 3.11 | 5 | 0.26 ± 0.04 | 0.95 ± 0.09 | 15 | –
13 | CCCCCCCCCCCCOS(=O)(=O)[O-].[Na+] [SDS, sodium dodecyl sulfate, reference compound] | – | – | – | – | – | – | TEWL 1 h after the sample had been removed (human skin [1]): 47.3 ± 2.2*^≠ g/m^2/h; TEWL 4 h after the sample had been removed (human skin [1]): 45.8 ± 4.4* g/m^2/h; TEWL 8 h after the sample had been removed (human skin [1]): 38.7 ± 3.1* g/m^2/h; TEWL 12 h after the sample had been removed (human skin [1]): 38.2 ± 2.6* g/m^2/h; TEWL 24 h after the sample had been removed (human skin [1]): 38.0 ± 2.3* g/m^2/h; reversibility of TEWL increase (human skin [1]): lack of TEWL and impedance reversibility; TEWL before sample application (baseline) (human skin [1]): 26.1 ± 2.9 g/m^2/h; impedance 1 h after the sample had been removed (human skin [2]): 1.9 ± 0.2* kΩ×cm^2; impedance 4 h after the sample had been removed (human skin [2]): 3.8 ± 0.2*^≠ kΩ×cm^2; impedance 8 h after the sample had been removed (human skin [2]): 5.0 ± 0.3*^≠ kΩ×cm^2; impedance 12 h after the sample had been removed (human skin [2]): 5.6 ± 0.3*^≠ kΩ×cm^2; impedance 24 h after the sample had been removed (human skin [2]): 6.4 ± 0.3*^≠ kΩ×cm^2; recovery of skin impedance after sample removal (human skin [2]): lack of TEWL and impedance reversibility; impedance before sample application (baseline) (human skin [2]): 26.7 ± 0.7 kΩ×cm^2
